In PubChem BioAssay (NCI):
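Grown in 96-well plates, cells were treated for 48 hours with each compound at five concentrations. Insufficient inhibition: endpoint recorded as highest concentration tested. GI50: concentration for 50% inhibition of growth. At the TGI there is no net growth.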

What was measured:
Assay in all cases: NCI tumour cell line growth inhibition, 48 h
786-0 renal = system: 786-0 renal
HCT-15 colon = system: HCT-15 colon
HOP-62 NSCLC = system: HOP-62 NSCLC
IGROV1 ovarian = system: IGROV1 ovarian
NCI-H522 lung = system: NCI-H522 lung
SF-539 CNS = system: SF-539 CNS
SK-MEL-2 melanoma = system: SK-MEL-2 melanoma
SN12C renal = system: SN12C renal
COLO 205 colon = system: COLO 205 colon
SK-OV-3 ovarian = system: SK-OV-3 ovarian

Row | Structure (SMILES) | TGI (786-0 renal) [µM] | TGI (HCT-15 colon) [µM] | TGI (HOP-62 NSCLC) [µM] | TGI (IGROV1 ovarian) [µM] | TGI (NCI-H522 lung) [µM] | TGI (SF-539 CNS) [µM] | TGI (SK-MEL-2 melanoma) [µM] | TGI (SN12C renal) [µM] | TGI (COLO 205 colon) [µM] | GI50 (786-0 renal) [µM] | GI50 (HCT-15 colon) [µM] | GI50 (HOP-62 NSCLC) [µM] | GI50 (IGROV1 ovarian) [µM] | GI50 (NCI-H522 lung) [µM] | GI50 (SF-539 CNS) [µM] | GI50 (SK-MEL-2 melanoma) [µM] | GI50 (SK-OV-3 ovarian) [µM] | TGI (SK-OV-3 ovarian) [µM] | GI50 (SN12C renal) [µM] | GI50 (COLO 205 colon) [µM]
1 | O=C(CCC(=O)Nc1ccc(Cl)c(Cl)c1)CC(=O)c1ccc2ccccc2c1 | > 100 | > 100 | > 100 | > 100 | > 100 | > 100 | > 100 | > 100 |  |  |  |  |  |  |  |  |  |  |  | 
2 | C/C(CCn1[nH]c(=O)ccc1=O)=N\NC(=O)C(N)=O | > 100 | > 100 | > 100 | > 100 | > 100 | > 100 | > 100 | > 100 | > 100 |  |  |  |  |  |  |  |  |  |  | 
3 | Cc1ccc([P+](Cc2ccccc2)(c2ccccc2)c2ccccc2)cc1 | > 100 | > 100 | > 100 | 19 | 6.88 | 50.9 | 5.63 | 13.1 |  | 4.11 | 19.5 | 4.25 | 1.92 | 1.78 | 3.03 | 2.35 | 4.1 | > 100 | 2.66 | 
4 | O=C(O)CN(c1ccccc1)S(=O)(=O)c1cccc([N+](=O)[O-])c1 | > 100 | > 100 |  | > 100 | > 100 | > 100 | > 100 | > 100 | > 100 |  |  |  |  |  |  |  |  | > 100 |  | 
5 | COc1cccc(C=O)c1C(=O)c1cc(O)ccc1O | > 100 | 41.3 | > 100 | > 62.5 |  | > 100 | > 100 | > 100 | 34.1 |  |  |  |  |  |  |  |  | > 100 |  | 
6 | COc1cc(-c2cc3ncccc3c3nc(OCCN(C)C)c4cccnc4c23)cc(OC)c1OC | 1.16 | 23.4 | 3 | 1.99 | 2.78 | 3.39 | 3.71 | 3.09 |  | 0.318 | 0.502 | 0.75 | 0.466 | 0.457 | 0.741 | 0.744 | 0.458 | 2.18 | 0.581 | 
7 | COc1cc(OC)cc(Oc2cnc3cc(N)cc(N)c3n2)c1 | 29 | 45.1 | 36.6 |  | 37.3 | 43.7 | 43.3 | 29.3 | 37.5 | 15.2 | 18.3 | 16.9 |  | 18.7 | 21.3 | 19.7 | 23.7 | 74.5 | 15.8 | 14
8 | COc1cc2c3c(n(CCCN(CCCN(CCCn4c5c(c6ccccc6c4=O)C(=O)c4ccccc4-5)C(=O)OC(C)(C)C)C(=O)OC(C)(C)C)c(=O)c2cc1OC)-c1cc2c(cc1C3=O)OCO2 | > 100 |  | > 100 | > 100 | > 100 |  | > 100 | > 100 | > 100 | > 100 |  | > 100 | > 100 | > 100 |  | > 100 | > 100 | > 100 | > 100 | > 100
9 | [O-]/N=[N+](/[O-])C1CCCCC1=[N+]1CCOCC1 (stereo unspecified) | > 100 |  | > 100 |  | > 100 |  | > 100 | > 100 | > 100 |  |  |  |  |  |  |  |  | > 100 |  | 
10 | O=C([O][Hg][c]1ccccc1)c1ccccc1 | 3.5 | 1.79 | 4.84 | 3.58 | 0.754 | 3.26 | 2.91 |  | 3.35 | 1.81 | 0.437 | 2.16 | 1.48 | 0.275 | 1.58 | 1.35 | 4.03 | 11.9 |  | 1.89
11 | CC(=O)OCC12CN(C#N)C3C4COC(CC41)C1(C(=O)N(C)c4ccccc41)C32 (stereo unspecified) | > 100 | 35.5 | 58.6 | 85 | 24.7 |  | 63.6 | 73.1 | 35.8 |  |  |  |  |  |  |  |  | > 100 |  | 
12 | O=C(CN1CCN(Cc2ccccc2Cl)CC1)NC1CC(=O)c2c(Br)sc(Br)c21 (stereo unspecified) | 40.4 | 34.1 |  | 34.5 | 5.06 | 36.1 | 31.4 | 35.9 | 38.4 | 19.4 | 18 |  | 18.2 | 2 | 20.3 | 15.7 | 54.1 | > 100 | 19.1 | 21.2
13 | CCc1ccccc1NC(=O)C(=O)C(C#N)c1ccccc1Cl (stereo unspecified) | > 100 |  | > 100 | > 100 |  |  | > 100 | > 100 | > 100 |  |  |  |  |  |  |  |  |  |  | 
14 | O=Cc1cccc2ccc3ccccc3c12 | 53.5 | > 100 | 52.4 |  | 52 | 23 | 38 | 88.5 | 37.5 |  |  |  |  |  |  |  |  | 46.5 |  | 
15 | COC(=O)C1=COC2OC3C(C(C)O)C(=O)OC34C=CC1C24 (stereo unspecified) | > 100 | > 100 |  | > 100 | 30.5 | > 100 | > 100 | > 100 | > 100 |  |  |  |  |  |  |  |  | > 100 |  | 
16 | O=C1/C(=C/c2ccc([N+](=O)[O-])s2)Oc2cc(Cl)ccc21 | 7.35 | 1.12 | > 100 | 3.61 | 0.713 |  | 3.33 | > 100 |  | 2.9 | 0.276 | 7.9 | 0.941 | 0.25 |  | 1.45 | 23.5 | > 100 | 2.36 | 
17 | COC(=O)C1CSC(c2csc(CCN)n2)=N1 (stereo unspecified) | > 100 | > 100 |  | > 100 | > 100 |  | > 100 | > 100 | > 100 |  |  |  |  |  |  |  |  | > 100 |  | 
18 | CN(C)C1CCN(Cc2ccc(NC(=O)c3cncc(C#Cc4cnc(N)c5ncccc45)c3)cc2C(F)(F)F)CC1 | 1.93 | 13.7 | 26.4 | 19.9 | 26.5 | 8.98 | 19.8 | 18.1 |  | 1.01 | 5.08 | 9.34 | 9.48 | 9.86 | 2.13 | 8.02 |  |  | 8.94 | 
